Each structure is given as a SMILES string.

Consider one molecule from article PMC5645531, “Probing the Single Key Amino Acid Responsible for the Novel Catalytic Function of ent-Kaurene Oxidase Supported by NADPH-Cytochrome P450 Reductases in Tripterygium wilfordii” (Frontiers in Plant Science, 2017).

In this test the target is T1, TwKO (Tripterygium wilfordii, UniProt A0A2S0H3R9).
T1 construct: full-length ORF co-expressed from pESC-Leu with a TwCPR (all four tested, TwCPR3 best) in Saccharomyces cerevisiae BY-T20; with NADPH--cytochrome P450 reductase 3
T1 sequence (A0A2S0H3R9 1-509): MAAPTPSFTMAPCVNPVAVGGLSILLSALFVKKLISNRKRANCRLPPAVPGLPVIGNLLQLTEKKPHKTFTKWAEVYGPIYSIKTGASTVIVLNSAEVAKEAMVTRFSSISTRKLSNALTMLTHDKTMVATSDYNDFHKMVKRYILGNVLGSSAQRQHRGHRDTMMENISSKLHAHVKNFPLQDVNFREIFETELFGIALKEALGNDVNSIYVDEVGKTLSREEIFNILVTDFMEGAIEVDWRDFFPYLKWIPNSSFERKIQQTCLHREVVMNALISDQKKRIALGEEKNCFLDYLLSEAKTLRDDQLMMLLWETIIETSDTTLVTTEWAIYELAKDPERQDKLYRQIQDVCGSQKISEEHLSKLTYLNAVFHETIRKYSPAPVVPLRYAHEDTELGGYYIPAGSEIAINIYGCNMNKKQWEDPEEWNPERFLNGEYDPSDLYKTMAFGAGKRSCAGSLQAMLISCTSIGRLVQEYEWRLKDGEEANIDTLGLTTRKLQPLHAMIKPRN
T1 sequence (A0A808MGE5 1-690 partner): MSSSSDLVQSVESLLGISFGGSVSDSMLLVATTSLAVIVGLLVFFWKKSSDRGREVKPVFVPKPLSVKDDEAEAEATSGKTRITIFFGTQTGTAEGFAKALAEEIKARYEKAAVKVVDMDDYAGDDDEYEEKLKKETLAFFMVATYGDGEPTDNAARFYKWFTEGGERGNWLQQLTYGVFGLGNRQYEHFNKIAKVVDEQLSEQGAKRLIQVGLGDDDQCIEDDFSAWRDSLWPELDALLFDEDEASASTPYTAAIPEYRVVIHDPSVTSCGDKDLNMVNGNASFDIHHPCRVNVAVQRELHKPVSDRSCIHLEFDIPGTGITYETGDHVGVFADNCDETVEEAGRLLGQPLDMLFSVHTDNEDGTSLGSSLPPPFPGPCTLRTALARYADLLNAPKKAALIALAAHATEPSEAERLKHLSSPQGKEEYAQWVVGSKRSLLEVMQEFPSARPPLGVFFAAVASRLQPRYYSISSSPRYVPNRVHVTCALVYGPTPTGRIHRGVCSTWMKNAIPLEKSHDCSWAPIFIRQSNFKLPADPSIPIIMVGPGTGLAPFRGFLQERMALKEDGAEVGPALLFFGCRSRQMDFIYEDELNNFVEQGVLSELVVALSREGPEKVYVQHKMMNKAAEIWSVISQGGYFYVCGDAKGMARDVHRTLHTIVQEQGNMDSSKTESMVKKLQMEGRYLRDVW
In words: GC-MS of methylated yeast culture extracts. Type of test: cell-based. Particulars: co-expressed TwCPR; substrate made in vivo by TwCPS3/TwKSL2:A608M; product ent-kaurenoic acid; 30 °C.

On to `C=C1C[C@@]23CC[C@@H]4C(C)(C)CCC[C@@]4(C)[C@@H]2CC[C@@H]1C3` [ent-kaurene], for which the “GC-MS of methylated yeast culture extracts” value is given as “three-stage oxidation of ent-kaurene to ent-kaurenoic acid”.
